Experimental data taken from US5116949A, “Benzoyl urea compound-albumin complex” (Ishihara Sangyo Kaisha Ltd., priority 1988, dated 1992).
Converted amounts (≈) assume the structure as drawn.

Assay: Solubility in distilled water for injection drug
Assay type: physicochemical
Settings: Compound 3 alone, read-out: Solubility (as Compound 3)

SMILES: O=C(NC(=O)c1ccccc1[N+](=O)[O-])Nc1ccc(Oc2ncc(Br)cn2)c(Cl)c1 [Compound 3]
- solubility: 0.024 µg/mL (≈ 0.0487 µM)
